In patent US12396459B2, “Synergistically effective herbicide composition comprising pyridate and at least one defined 4-HPPD inhibitor” (BELCHIM CROP PROTECTION NV, priority 2018, dated 2025):

How the values were obtained:
Assay type in all cases: in vivo
Hibiscus ternatus = test: Field trial post-emergence in maize: HIBTR; details: 7-14 DAA; # = 2; g a.c./ha: PYR 300, MES 100, PYR + MES 300 + 90
Procedure: (§1) Herbicidal activity of herbicide compositions according to the first aspect of the present invention with regard to different types of unwanted vegetation was determined during trials performed on test fields (field trials). Individual compositions comprising pyridate and individual compositions comprising a defined 4-HPPD inhibitor are compared with a herbicide composition according to the invention comprising both pyridate and a defined 4-HPPD inhibitor. The expected activity of the combination of the active compounds pyridate and a defined 4-HPPD inhibitor is calculated according to above mentioned calculation method by Colby, in order to evaluate a synergistic effect between pyridate and a defined 4-HPPD inhibitor.
(§2) Herbicidal activity was determined by applying herbicide compositions on emerged unwanted vegetation on fields where maize was cultivated. Pyridate and a defined 4-HPPD inhibitor were applied as a tank mixture by mixing these active compounds prior to use in a spray tank. The corresponding mixture was in the form of a spray liquor. […] At a specified number of days after application (DAA), the degree of damage to the unwanted vegetation is rated in % of plants of unwanted vegetation that were killed, which was assessed by visually controlling the plants.

Papaver rhoeas = test: Field trial post-emergence in maize: PAPRH; details: # = 1, g a.c./ha: PYR 300, MES 100, PYR + MES 300 + 90
Procedure: as §1
(§3) Herbicidal activity was determined by applying herbicide compositions on emerged unwanted vegetation on fields where maize was cultivated. Pyridate and a defined 4-HPPD inhibitor were applied as a tank mixture by mixing these active compounds prior to use in a spray tank. The corresponding mixture was in the form of a spray liquor. Besides, spray liquors of individual compositions comprising pyridate and of individual compositions comprising a defined 4-HPPD inhibitor were used. Test plants of unwanted vegetation with a growth stage corresponding to BBCH 10-18 (according to the extended BBCH-scale) were sprayed with the active compound preparations such that particular desired amounts of active compounds are applied per unit area. Spray liquor was diluted with water to arrive at an application volume of 50 to 450 L/ha. At a specified number of days after application (DAA), the degree of damage to the unwanted vegetation is rated in % of plants of unwanted vegetation that were killed, which was assessed by visually controlling the plants.

Amaranthus retroflexus = test: Field trial post-emergence in maize: AMARE; details: 13-14 DAA, # = 1
Procedure: as §1, §3

Bassia scoparia = test: Field trial post-emergence in maize: KCHSC; details: 13-14 DAA; # = 2; g a.c./ha: PYR 450, TEM 38, PYR + TEM 450 + 38
Procedure: as §1, §2

Lamium amplexicaule = test: Example 6 herbicidal effect: LAMAM; details: 7 DAA
Echinochloa crus-galli [1] = test: Examples 6-8 herbicidal effect: ECHCG; details: 7 DAA
Matricaria chamomilla = test: Field trial post-emergence in maize: MATCH
Procedure: as §1, §3
(§4) Example 1 concerns a herbicide composition comprising a combination of pyridate and mesotrione, which was applied post-emergence on unwanted vegetation on a field where maize was cultivated, according to the test conditions mentioned above.

Galium aparine = test: Field trial post-emergence in maize: GALAP
Procedure: as §1, §3, §4

Capsella bursa-pastoris = test: Field trial post-emergence in maize: CAPBP
Procedure: as §1, §3

Veronica persica = test: Field trial post-emergence in maize: VERPE; details: for herbicidal effect (h.e.): g a.c./ha: PYR 300, MES 100, PYR + MES 300 + 90
Procedure: as §1, §3

Chenopodium album = test: Field trial post-emergence in maize: CHEAL; details: 13-14 DAA, # = 1
Procedure: as §1, §3

Sonchus oleraceus = test: Field trial post-emergence in maize: SONOL; details: # = 1, g a.c./ha: PYR 300, MES 100, PYR + MES 300 + 90
Procedure: as §1, §3

[2] = tested on: Tripleurospermum inodorum; test: Field trial post-emergence in maize: MATIN; details: for herbicidal effect (h.e.): # = 1, g a.c./ha: PYR 300, MES 100, PYR + MES 300 + 90
Procedure: as §1, §3

Echinochloa crus-galli [3] = test: Field trial post-emergence in maize: ECHCG; details: for herbicidal effect (h.e.): g a.c./ha: PYR 300, MES 100, PYR + MES 300 + 90
Procedure: as §1, §3

Erodium ciconium = test: Field trial post-emergence in maize: EROCC
Procedure: as §1, §3, §4

Poa annua = test: Examples 6-8 herbicidal effect: POAAN; details: 7 DAA
Sorghum halepense = test: Field trial post-emergence in maize: SORHA; details: 7-14 DAA; # = 1; g a.c./ha: PYR 300, MES 100, PYR + MES 300 + 90
Procedure: as §1, §2

[4] = g a.c./ha: PYR 450, TOP 12.4, PYR + TOP 450 + 12.4
[5] = g a.c./ha: PYR 10, TEM 22, PYR + TEM 10 + 100
[6] = g a.c./ha: PYR 300, TEM 100, PYR + TEM 300 + 100
[7] = g a.c./ha: PYR 900, TEM 44, PYR + TEM 900 + 44
[8] = g a.c./ha: PYR 300, PYR + MES 300 + 80
[9] = g a.c./ha: PYR 300, SCT 300, PYR + SCT 300 + 300
[10] = g a.c./ha: PYR 450, SCT 450, PYR + SCT 300 + 450
[11] = g a.c./ha: PYR 600, PYR + SCT 600 + 300

## CCCCCCCCSC(=O)Oc1cc(Cl)nnc1-c1ccccc1 [PYR, (6-chloro-3-phenylpyridazin-4-yl) octylsulfanylformate]
Hibiscus ternatus
  herbicidal effect (h.e.): 36%
Papaver rhoeas; 18-28 DAA
  herbicidal effect (h.e.): 3%
Papaver rhoeas; 31-48 DAA
  herbicidal effect (h.e.): 3%
Amaranthus retroflexus; g a.c./ha: PYR 450, MES 144, PYR + MES 450 + 144
  herbicidal effect (h.e.): 72%
Amaranthus retroflexus; [4]
  herbicidal effect (h.e.): 72%
Bassia scoparia
  herbicidal effect (h.e.): 66%
Lamium amplexicaule; [5]
  herbicidal effect (h.e.): 0%
Lamium amplexicaule; [6]
  herbicidal effect (h.e.): 5%
Lamium amplexicaule; [7]
  herbicidal effect (h.e.): 10%
Echinochloa crus-galli [1]; [5]
  herbicidal effect (h.e.): 0%
Echinochloa crus-galli [1]; [8]
  herbicidal effect (h.e.): 0%
Echinochloa crus-galli [1]; [9]
  herbicidal effect (h.e.): 0%
Echinochloa crus-galli [1]; [6]
  herbicidal effect (h.e.): 0%
Echinochloa crus-galli [1]; [10]
  herbicidal effect (h.e.): 0%
Echinochloa crus-galli [1]; [11]
  herbicidal effect (h.e.): 0%
Echinochloa crus-galli [1]; [7]
  herbicidal effect (h.e.): 5%
Matricaria chamomilla; MATCH 14-20 DAA 300 g a.c./ha
  PYR h.e.: 25%
Matricaria chamomilla; MATCH 14-20 DAA 600 g a.c./ha
  PYR h.e.: 45%
Matricaria chamomilla; MATCH 14-20 DAA 900 g a.c./ha
  PYR h.e.: 61%
Matricaria chamomilla; MATCH 24-31 DAA 300 g a.c./ha
  PYR h.e.: 5%
Matricaria chamomilla; MATCH 24-31 DAA 600 g a.c./ha
  PYR h.e.: 26%
Matricaria chamomilla; MATCH 24-31 DAA 900 g a.c./ha
  PYR h.e.: 39%
Galium aparine; GALAP 14-20 DAA 300 g a.c./ha
  PYR h.e.: 20%
Galium aparine; GALAP 14-20 DAA 600 g a.c./ha
  PYR h.e.: 30%
Galium aparine; GALAP 14-20 DAA 900 g a.c./ha
  PYR h.e.: 35%
Galium aparine; GALAP 24-31 DAA 300 g a.c./ha
  PYR h.e.: 18%
Galium aparine; GALAP 24-31 DAA 600 g a.c./ha
  PYR h.e.: 30%
Galium aparine; GALAP 24-31 DAA 900 g a.c./ha
  PYR h.e.: 38%
Capsella bursa-pastoris; 7-14 DAA, # = 3, g a.c./ha: PYR 300, MES 100, PYR + MES 300 + 90
  herbicidal effect (h.e.): 51%
Capsella bursa-pastoris; CAPBP 14-20 DAA 300 g a.c./ha
  PYR h.e.: 59%
Capsella bursa-pastoris; CAPBP 14-20 DAA 600 g a.c./ha
  PYR h.e.: 65%
Capsella bursa-pastoris; CAPBP 14-20 DAA 900 g a.c./ha
  PYR h.e.: 73%
Capsella bursa-pastoris; CAPBP 24-31 DAA 300 g a.c./ha
  PYR h.e.: 53%
Capsella bursa-pastoris; CAPBP 24-31 DAA 600 g a.c./ha
  PYR h.e.: 61%
Capsella bursa-pastoris; CAPBP 24-31 DAA 900 g a.c./ha
  PYR h.e.: 73%
Veronica persica; 7-14 DAA, # = 4
  herbicidal effect (h.e.): 58%
Veronica persica; 31-48 DAA, # = 5
  herbicidal effect (h.e.): 44%
Veronica persica; VERPE 14-20 DAA 300 g a.c./ha
  PYR h.e.: 0%
Veronica persica; VERPE 14-20 DAA 600 g a.c./ha
  PYR h.e.: 20%
Veronica persica; VERPE 14-20 DAA 900 g a.c./ha
  PYR h.e.: 40%
Veronica persica; VERPE 24-31 DAA 300 g a.c./ha
  PYR h.e.: 10%
Veronica persica; VERPE 24-31 DAA 600 g a.c./ha
  PYR h.e.: 0%
Veronica persica; VERPE 24-31 DAA 900 g a.c./ha
  PYR h.e.: 0%
Chenopodium album; g a.c./ha: PYR 450, TEM 38, PYR + TEM 450 + 38
  herbicidal effect (h.e.): 49%
Chenopodium album; [4]
  herbicidal effect (h.e.): 35%
Sonchus oleraceus; 7-14 DAA
  herbicidal effect (h.e.): 93%
Sonchus oleraceus; 18-28 DAA
  herbicidal effect (h.e.): 51%
Sonchus oleraceus; 31-48 DAA
  herbicidal effect (h.e.): 37%
[2]; 7-14 DAA
  herbicidal effect (h.e.): 3%
[2]; 18-28 DAA
  herbicidal effect (h.e.): 5%
[2]; 31-48 DAA
  herbicidal effect (h.e.): 5%
[2]; MATIN 24-31 DAA 300 g a.c./ha
  PYR h.e.: 75%
[2]; MATIN 24-31 DAA 600 g a.c./ha
  PYR h.e.: 60%
[2]; MATIN 24-31 DAA 900 g a.c./ha
  PYR h.e.: 55%
Echinochloa crus-galli [3]; 7-14 DAA, # = 9
  herbicidal effect (h.e.): 20%
Echinochloa crus-galli [3]; 18-28 DAA, # = 14
  herbicidal effect (h.e.): 23%
Echinochloa crus-galli [3]; 31-48 DAA, # = 13
  herbicidal effect (h.e.): 23%
Echinochloa crus-galli [3]; ECHCG 14-20 DAA 300 g a.c./ha
  PYR h.e.: 10%
Echinochloa crus-galli [3]; ECHCG 14-20 DAA 600 g a.c./ha
  PYR h.e.: 23%
Echinochloa crus-galli [3]; ECHCG 14-20 DAA 900 g a.c./ha
  PYR h.e.: 31%
Echinochloa crus-galli [3]; ECHCG 24-31 DAA 300 g a.c./ha
  PYR h.e.: 0%
Echinochloa crus-galli [3]; ECHCG 24-31 DAA 600 g a.c./ha
  PYR h.e.: 3%
Echinochloa crus-galli [3]; ECHCG 24-31 DAA 900 g a.c./ha
  PYR h.e.: 20%
Erodium ciconium; EROCC 14-20 DAA 300 g a.c./ha
  PYR h.e.: 89%
Erodium ciconium; EROCC 14-20 DAA 600 g a.c./ha
  PYR h.e.: 96%
Poa annua; [5]
  herbicidal effect (h.e.): 0%
Poa annua; [8]
  herbicidal effect (h.e.): 3%
Poa annua; [9]
  herbicidal effect (h.e.): 2%
Poa annua; [6]
  herbicidal effect (h.e.): 10%
Poa annua; [10]
  herbicidal effect (h.e.): 2%
Poa annua; [11]
  herbicidal effect (h.e.): 0%
Poa annua; [7]
  herbicidal effect (h.e.): 0%
Sorghum halepense
  herbicidal effect (h.e.): 58%
